According to patent US20220273659A1, “HETEROCYCLIC COMPOUNDS AS KINASE INHIBITORS” (NUVATION BIO INC., priority 2019, published 2022):

What was measured:
CDK9 (cyclin K) = biological target: T1, CDK9 (cyclin K) (Homo sapiens, UniProt P50750); test: LanthaScreen Eu Kinase Binding Assay
T1 construct: purchased Invitrogen Life Technologies (assay service)
Method: (§1) 0.16 μL of 100×test compound in 100% DMSO (at specific solutions) were mixed with 3.84 μL of Kinase Buffer (50 mM HEPES pH 7.5, 0.01% BRIJ-35, 10 mM MgCl2, 1 mM EGTA), 8.0 μL of 2× Kinase (5 nM)/Antibody (Eu-anti-His, 2 nM) Mixture and 4.0 μL of 4×Tracer (Tracer 236, 100 nM). The plates were shaken for 30 seconds, and incubated for 60 minutes at room temperature. The plates were read on fluorescence plate reader with Dual emission at 615 nm and 665 nm.
(§2) The following equations were used for LanthaScreen Eu Kinase Binding Assay Data Analysis. Percent inhibition (100-% activity) was fitted to the “four-parameter logistic model” in XLfit for determination of IC50 values.

CDK2 (cyclin E1) = biological target: T2, CDK2 (cyclin E1) (Homo sapiens, UniProt P24941); test: LanthaScreen Eu Kinase Binding Assay; settings: read-out: CDK2/E IC50
T2 construct: purchased Invitrogen Life Technologies (assay service)
Method: as §1, with “Kinase (2.5” for “Kinase (5”, “nM)/Antibody (Eu-anti-GST,” for “nM)/Antibody (Eu-anti-His,”
as §2

T1 sequence (P50750 whole entry): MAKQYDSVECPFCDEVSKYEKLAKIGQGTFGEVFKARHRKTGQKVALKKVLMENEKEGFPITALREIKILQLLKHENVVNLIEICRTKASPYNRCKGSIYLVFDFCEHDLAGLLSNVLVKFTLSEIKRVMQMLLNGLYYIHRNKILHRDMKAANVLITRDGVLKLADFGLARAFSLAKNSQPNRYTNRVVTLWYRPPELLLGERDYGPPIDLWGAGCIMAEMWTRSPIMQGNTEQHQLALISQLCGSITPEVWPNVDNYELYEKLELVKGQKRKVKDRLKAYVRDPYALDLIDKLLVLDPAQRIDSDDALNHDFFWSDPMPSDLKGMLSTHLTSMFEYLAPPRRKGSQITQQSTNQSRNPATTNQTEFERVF
T1 sequence (O75909 whole entry partner): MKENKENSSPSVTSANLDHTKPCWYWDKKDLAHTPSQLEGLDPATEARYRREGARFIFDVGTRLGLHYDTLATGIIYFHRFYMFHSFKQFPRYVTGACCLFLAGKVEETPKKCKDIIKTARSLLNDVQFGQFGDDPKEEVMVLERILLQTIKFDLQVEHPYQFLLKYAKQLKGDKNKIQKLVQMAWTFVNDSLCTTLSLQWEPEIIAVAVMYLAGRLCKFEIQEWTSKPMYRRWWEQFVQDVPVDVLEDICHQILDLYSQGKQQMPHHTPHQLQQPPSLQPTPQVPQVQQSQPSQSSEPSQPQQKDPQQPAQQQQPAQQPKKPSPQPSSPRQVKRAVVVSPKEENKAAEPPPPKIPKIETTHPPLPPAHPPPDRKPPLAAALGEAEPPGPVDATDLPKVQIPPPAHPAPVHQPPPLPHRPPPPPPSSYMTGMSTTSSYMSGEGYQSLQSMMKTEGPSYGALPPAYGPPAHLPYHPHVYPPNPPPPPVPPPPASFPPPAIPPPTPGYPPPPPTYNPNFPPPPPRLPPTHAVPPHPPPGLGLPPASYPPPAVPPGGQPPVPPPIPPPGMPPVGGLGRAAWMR

N#Cc1cc2cnc(Nc3ccc4c(c3)CCNC4)nc2n(C2CCCC2)c1=O [Compound No. 31, 8-cyclopentyl-7-oxo-2-((1,2,3,4-tetrahydroisoquinolin-6-yl)amino)-7,8-dihydropyrido[2,3-d]pyrimidine-6-carbonitrile]
IC50 (CDK9 (cyclin K)): 20 nM | IC50 (CDK2 (cyclin E1)): 74 nM
